The values that follow come from ChEMBL document CHEMBL1201862, “PubChem BioAssay data set” (2004).

Some test systems named below: ACHN; CAKI-1; HCT-116; HL-60; HOP-62; IGROV-1; KM12; LOX IMVI; MDA-MB-435; MDA-N; MOLT-4; Malme-3M; NCI-H23; NCI-H522; OVCAR-3; OVCAR-5; PC-3; SK-MEL-28; UACC-257; SNB-75.
Assay in all cases: DTP human tumour cell line panel, 48 h

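Cultured in 96-well plates, cells were exposed to test compound for 48 hours across five concentrations. The concentration for 50% growth inhibition is given as GI50.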 Active and inactive are the calls of the source. Cut-off read from the data, not from the text of the source: active = GI50 up to about 1.1 µM and inactive = higher.

Usually GI50 stands for the concentration at which growth is held to half of that of the control. Take `Cc1[nH]c2c(C)ccc(C)c2c1CC(=O)O`: the GI50 in the assay on ACHN is 59.4 µM (inactive); in the assay with CAKI-1, 43 µM (inactive); in the assay on HCT-116, 38.5 µM (inactive); in the assay on HL-60, 5.43 µM (inactive); in the assay on HOP-62, 81.5 µM (inactive); in the assay with IGROV-1 it was 17.6 µM (inactive). For the same compound, the GI50 with KM12 is 32.2 µM (inactive); in the assay with LOX IMVI it was 36.5 µM (inactive); in the assay on MDA-MB-435 it was 42.3 µM (inactive); in the assay with MDA-N, 31.5 µM (inactive); in the assay on MOLT-4 it was 26.5 µM (inactive); in the assay with Malme-3M, 37.7 µM (inactive). Also, the GI50 with NCI-H23 is 51.8 µM (inactive); in the assay on NCI-H522, 24.2 µM (inactive); in the assay on OVCAR-3, 31.3 µM (inactive); in the assay with OVCAR-5, > 100 µM (inactive); in the assay on PC-3, 22 µM (inactive); with SK-MEL-28, 61.8 µM (inactive). Further, the GI50 with UACC-257 is 30.5 µM (inactive).
As to `CC1(C)CCN2C(=O)C34CCCC3CC21S4` (stereo not drawn), the GI50 in the assay with ACHN, with CAKI-1, in the assay with HCT-116, with HL-60, in the assay with HOP-62 and in the assay with IGROV-1 was > 100 µM (inactive) each time. Moreover, the GI50 with KM12, in the assay with LOX IMVI, with MDA-MB-435, with MDA-N, in the assay on MOLT-4 and in the assay on Malme-3M was > 100 µM (inactive) throughout. In addition, the GI50 in the assay with NCI-H23, in the assay with NCI-H522, with OVCAR-3, in the assay with OVCAR-5, with PC-3 and in the assay with SK-MEL-28 was > 100 µM (inactive) each time. In the assay with UACC-257, the GI50 is > 100 µM (inactive).
On to `CC[C@@]1(O)C(=O)OCc2c1cc1n(c2=O)Cc2c-1nc1ccccc1c2/C=N\NC(=O)C(N)CO` (stereo partly drawn), for which the GI50 in the assay with ACHN is 0.191 µM (active); in the assay on CAKI-1 it was 0.408 µM (active); in the assay on HCT-116, 1.02 µM (active); in the assay with HL-60, 0.335 µM (active); with HOP-62, 0.201 µM (active); in the assay on IGROV-1, 7.59 µM (inactive). The GI50 in the assay on KM12 is 5.92 µM (inactive); with LOX IMVI, 0.329 µM (active); in the assay with MDA-MB-435 it was 4.25 µM (inactive); with MDA-N, 6.52 µM (inactive); in the assay on MOLT-4 it was 0.0466 µM (active); in the assay with Malme-3M, 9.04 µM (inactive). The GI50 with NCI-H23 was 0.371 µM (active); in the assay on NCI-H522 it was 1.28 µM (inactive); with OVCAR-3, 16.2 µM (inactive); with OVCAR-5 it was 13.4 µM (inactive); in the assay with PC-3, 2.2 µM (inactive); in the assay with SK-MEL-28 it was 19.2 µM (inactive). For the same compound, the GI50 in the assay with UACC-257 was 3.59 µM (inactive).
Take `CC1(C)OC2C(CO)OC(n3ccc(N)nc3=O)C2O1` (stereo not drawn): the GI50 in the assay with ACHN, in the assay with CAKI-1, in the assay on HCT-116, in the assay on HL-60, in the assay with HOP-62 and in the assay on IGROV-1 was > 100 µM (inactive) in each case. In addition, the GI50 with KM12, with LOX IMVI, in the assay with MDA-MB-435, with MDA-N, in the assay on MOLT-4 and in the assay on Malme-3M was > 100 µM (inactive) throughout. The GI50 in the assay on NCI-H23, in the assay on NCI-H522, in the assay on OVCAR-3, in the assay with OVCAR-5, in the assay with PC-3 and in the assay with SK-MEL-28 was > 100 µM (inactive) in each case. Further, the GI50 in the assay with UACC-257 was > 100 µM (inactive).
In the case of `CC(=O)NCCC1CNc2ccccc21` (stereo not drawn), the GI50 in the assay on ACHN, in the assay on CAKI-1, with HCT-116, in the assay with HL-60, in the assay on IGROV-1 and in the assay with KM12 was > 100 µM (inactive) in each case. In addition, the GI50 in the assay with LOX IMVI, in the assay with MDA-MB-435, in the assay on MDA-N, in the assay with MOLT-4, in the assay with Malme-3M and in the assay on NCI-H23 was > 100 µM (inactive) throughout. In addition, the GI50 with NCI-H522, with OVCAR-3, in the assay on OVCAR-5, with PC-3, in the assay on SK-MEL-28 and in the assay with UACC-257 was > 100 µM (inactive) throughout.
In the case of `COc1ccc2c(c1)OCc1c-2oc2ccccc2c1=O`, the GI50 in the assay on ACHN was 61.1 µM (inactive); with CAKI-1, > 100 µM (inactive); with HCT-116 it was > 100 µM (inactive); in the assay on HOP-62 it was 53.7 µM (inactive); in the assay on IGROV-1 it was 75.2 µM (inactive); in the assay with KM12 it was > 100 µM (inactive). Moreover, the GI50 in the assay on LOX IMVI was > 100 µM (inactive); in the assay with MDA-MB-435, > 100 µM (inactive); with MDA-N, > 100 µM (inactive); with MOLT-4, > 100 µM (inactive); in the assay on Malme-3M it was > 100 µM (inactive); in the assay with NCI-H23, 0.0895 µM (active). The GI50 was > 100 µM (inactive) with NCI-H522; > 100 µM (inactive) in the assay on OVCAR-3; > 100 µM (inactive) with OVCAR-5; > 100 µM (inactive) in the assay with PC-3; 34.5 µM (inactive) in the assay on SNB-75; > 100 µM (inactive) in the assay on UACC-257.
As for `CCOC(=O)C1=CC(C)(C(=O)OCC)Nc2c(nc(SC)n(C)c2=O)N1` (stereo not drawn), the GI50 in the assay with ACHN, in the assay with CAKI-1, in the assay with HCT-116, with HOP-62, in the assay on IGROV-1 and in the assay with KM12 was > 10 µM (inactive) throughout. For the same compound, the GI50 in the assay with LOX IMVI, in the assay with MDA-MB-435, in the assay with MDA-N, in the assay on MOLT-4, in the assay with Malme-3M and in the assay with NCI-H23 was > 10 µM (inactive) in each case. In addition, the GI50 in the assay with NCI-H522, in the assay with OVCAR-3, in the assay with OVCAR-5, with PC-3, in the assay on SK-MEL-28 and with SNB-75 was > 10 µM (inactive) each time. The GI50 with UACC-257 was > 10 µM (inactive).
For `O=C(/C=C/c1cccc(Oc2ccccc2)c1)NCc1ccc(C(=O)NCCc2ccccc2)cc1`, the GI50 in the assay with ACHN is > 100 µM (inactive); with CAKI-1 it was > 100 µM (inactive); with HCT-116 it was > 100 µM (inactive); in the assay with HOP-62, 27.2 µM (inactive); with IGROV-1, > 100 µM (inactive); with KM12, > 100 µM (inactive). The GI50 in the assay with LOX IMVI was > 100 µM (inactive); in the assay on MDA-MB-435, > 100 µM (inactive); in the assay with MDA-N it was > 100 µM (inactive); with MOLT-4, > 100 µM (inactive); in the assay on Malme-3M, > 100 µM (inactive); in the assay with NCI-H23, 43.7 µM (inactive). The GI50 with NCI-H522 is 75 µM (inactive); in the assay with OVCAR-3, > 100 µM (inactive); with OVCAR-5, > 100 µM (inactive); in the assay with PC-3, > 100 µM (inactive); in the assay on SK-MEL-28 it was > 100 µM (inactive); in the assay on SNB-75, 29.4 µM (inactive). Also, the GI50 with UACC-257 was > 100 µM (inactive).
As to `Nc1ccc(Nc2cc(=O)[nH]c(=O)[nH]2)cc1Cl`, the GI50 in the assay with ACHN, in the assay with CAKI-1, with HCT-116, in the assay on HL-60, with LOX IMVI and in the assay on MDA-MB-435 was > 100 µM (inactive) in each case. Moreover, the GI50 with MDA-N, in the assay with MOLT-4, in the assay on Malme-3M, in the assay on NCI-H23, in the assay with NCI-H522 and in the assay with OVCAR-3 was > 100 µM (inactive) each time. Moreover, the GI50 in the assay with OVCAR-5, with PC-3, with SK-MEL-28 and with UACC-257 was > 100 µM (inactive) in each case.
Consider `NC(Cc1ncccn1)C(=O)O` (stereo not drawn), for which the GI50 in the assay with ACHN, in the assay with CAKI-1, with HCT-116, with HOP-62, in the assay on IGROV-1 and in the assay on KM12 was > 100 µM (inactive) each time. In addition, the GI50 with LOX IMVI, with MDA-MB-435, in the assay on MDA-N, in the assay on MOLT-4, with Malme-3M and in the assay on NCI-H23 was > 100 µM (inactive) throughout. Besides, the GI50 in the assay with NCI-H522, in the assay with OVCAR-3, in the assay with OVCAR-5, with PC-3, in the assay on SK-MEL-28 and in the assay with SNB-75 was > 100 µM (inactive) each time. Also, in the assay on UACC-257, the GI50 was > 100 µM (inactive).
With `CCOP(=O)(OCC)C(Cc1ccc(Cl)cc1)NS(=O)(=O)c1ccc(C)cc1` (stereo not drawn), the GI50 in the assay on ACHN, with CAKI-1, in the assay on HL-60, with HOP-62, with IGROV-1 and in the assay with KM12 was > 100 µM (inactive) in each case. Also, the GI50 in the assay on LOX IMVI, in the assay on MDA-MB-435, in the assay with MDA-N, in the assay on MOLT-4, in the assay on Malme-3M and in the assay on NCI-H23 was > 100 µM (inactive) in each case. Further, the GI50 was 67.9 µM (inactive) with NCI-H522; > 100 µM (inactive) with OVCAR-3; > 100 µM (inactive) in the assay on OVCAR-5; > 100 µM (inactive) with PC-3; > 100 µM (inactive) in the assay with SK-MEL-28; 35.5 µM (inactive) in the assay with UACC-257.
